Active and inactive are the calls of the source.
What was measured:
[1] = molecular target: T1, Dual specificity protein phosphatase 3 (Homo sapiens, UniProt P51452); assay: VHR1 phosphatase inhibitors, primary screen, biochemical, absorbance, uHTS (AID 1654)
[2] = molecular target: T1, Dual specificity protein phosphatase 3; assay: VHR1 phosphatase inhibitors, biochemical (AID 1878)
[3] = molecular target: T2, Dual specificity protein phosphatase 6 (Rattus norvegicus, UniProt Q64346); assay: inhibition of rat DUSP6 enzyme activity – biochemical, in vitro, primary screen (AID 425)
T2 sequence (Q64346 whole entry): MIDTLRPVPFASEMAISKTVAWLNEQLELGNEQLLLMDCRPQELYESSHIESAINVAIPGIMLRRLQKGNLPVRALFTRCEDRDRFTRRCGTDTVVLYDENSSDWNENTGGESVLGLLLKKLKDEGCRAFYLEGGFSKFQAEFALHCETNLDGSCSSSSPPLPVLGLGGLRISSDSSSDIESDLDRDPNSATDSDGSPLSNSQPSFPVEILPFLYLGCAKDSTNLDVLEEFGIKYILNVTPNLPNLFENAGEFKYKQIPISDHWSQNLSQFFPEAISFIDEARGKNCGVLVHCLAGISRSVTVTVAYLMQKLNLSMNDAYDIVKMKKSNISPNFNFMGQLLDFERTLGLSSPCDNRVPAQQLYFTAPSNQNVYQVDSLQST

[4] = molecular target: T1, Dual specificity protein phosphatase 3; assay: SAR VHR1 absorbance Assay for In Vitro dose response studies. [Related pubchem assays (depositor defined):AID1654, AID1661, AID1878, AID1992, AID2004]
[5] = molecular target: T1, Dual specificity protein phosphatase 3; assay: SAR VHR1 Fluorescent Assay for In Vitro dose response studies. [Related pubchem assays (depositor defined):AID1654, AID1661, AID1878, AID1992, AID2004, AID2070, AID2085]; assay type: functional
[6] = molecular target: T3, Tyrosine-protein phosphatase non-receptor type 7 (Homo sapiens, UniProt P35236); assay: redox-active compounds inhibiting HePTP phosphatase – biochemical, fluorescence, mechanism study (AID 2068); assay type: functional
T3 sequence (P35236 whole entry): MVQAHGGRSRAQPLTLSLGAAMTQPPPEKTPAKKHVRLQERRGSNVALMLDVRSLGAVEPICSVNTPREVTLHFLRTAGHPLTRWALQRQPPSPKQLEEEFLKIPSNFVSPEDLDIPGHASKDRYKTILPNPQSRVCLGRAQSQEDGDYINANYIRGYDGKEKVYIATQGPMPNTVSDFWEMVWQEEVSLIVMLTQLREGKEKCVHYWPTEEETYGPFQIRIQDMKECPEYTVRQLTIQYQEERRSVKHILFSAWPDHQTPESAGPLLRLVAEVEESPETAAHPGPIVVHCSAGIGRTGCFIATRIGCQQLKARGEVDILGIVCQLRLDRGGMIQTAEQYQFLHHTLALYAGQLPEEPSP

[7] = molecular target: T2, Dual specificity protein phosphatase 6; assay: SAR analysis of inhibitors of MKP-3 - Set 2. [Related pubchem assays (depositor defined):AID1055, AID1661, AID425, AID553, AID566]; assay type: functional
[8] = molecular target: T3, Tyrosine-protein phosphatase non-receptor type 7; assay: inhibition of hematopoietic tyrosine phosphatase HePTP – biochemical, set 2, SAR follow-up (AID 449736); assay type: functional
[9] = molecular target: T3, Tyrosine-protein phosphatase non-receptor type 7; assay: SAR analysis of chemical inhibitors of HePTP using a Fluorescent assay - Set 2. [Related pubchem assays (depositor defined):AID1059, AID1077, AID1661, AID2085, AID521]; assay type: functional
[10] = molecular target: T1, Dual specificity protein phosphatase 3; assay: SAR VHR1 Fluorescent Assay for In Vitro dose response studies Set 2. [Related pubchem assays (depositor defined):AID1654, AID1661, AID1878]; assay type: functional
[11] = molecular target: T2, Dual specificity protein phosphatase 6; assay type: functional
[12] = molecular target: Sphingosine 1-phosphate receptor 5 (Homo sapiens, UniProt Q9H228); assay: Late stage counterscreen assay for S1P4 antagonists: Fluorescence dose response cell-based screening assay for antagonists of the Sphingosine 1-Phosphate Receptor 5 (S1P5). [Related pubchem assays (depositor defined):AID1510, AID1524, AID1692, AID1853, AID2332, AID489009, AID489017]; assay type: functional
[13] = molecular target: Sphingosine 1-phosphate receptor 3 (Homo sapiens, UniProt Q99500); assay: Late stage counterscreen assay for S1P4 antagonists: Fluorescence dose response cell-based screening assay for antagonists of the Sphingosine 1-Phosphate Receptor 3 (S1P3). [Related pubchem assays (depositor defined):AID1510, AID1524, AID1692, AID1853, AID2332, AID489009, AID489017]; assay type: functional
[14] = molecular target: Sphingosine 1-phosphate receptor 1 (Homo sapiens, UniProt P21453); assay: Late stage counterscreen assay for S1P4 antagonists: Fluorescence dose response cell-based screening assay for antagonists of the Sphingosine 1-Phosphate Receptor 1 (S1P1). [Related pubchem assays (depositor defined):AID1510, AID1524, AID1692, AID1853, AID2332, AID489009, AID489017]; assay type: functional
[15] = molecular target: Sphingosine 1-phosphate receptor 2 (Homo sapiens, UniProt O95136); assay: Late stage counterscreen assay for S1P4 antagonists: Fluorescence dose response cell-based screening assay for antagonists of the Sphingosine 1-Phosphate Receptor 2 (S1P2). [Related pubchem assays (depositor defined):AID1510, AID1524, AID1692, AID1853, AID2332, AID489009, AID489017]; assay type: functional
Sphingosine 1-phosphate receptor 2, sequence (O95136 whole entry): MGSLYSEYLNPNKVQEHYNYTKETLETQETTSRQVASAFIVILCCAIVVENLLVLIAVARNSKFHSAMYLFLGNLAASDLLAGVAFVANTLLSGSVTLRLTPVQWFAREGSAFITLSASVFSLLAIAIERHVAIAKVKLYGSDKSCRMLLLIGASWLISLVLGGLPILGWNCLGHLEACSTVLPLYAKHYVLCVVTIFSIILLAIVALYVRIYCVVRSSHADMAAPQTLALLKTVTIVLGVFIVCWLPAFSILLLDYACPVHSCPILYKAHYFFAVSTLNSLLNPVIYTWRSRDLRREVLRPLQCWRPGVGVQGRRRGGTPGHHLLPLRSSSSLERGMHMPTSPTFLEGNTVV

T1 sequence (P51452 whole entry): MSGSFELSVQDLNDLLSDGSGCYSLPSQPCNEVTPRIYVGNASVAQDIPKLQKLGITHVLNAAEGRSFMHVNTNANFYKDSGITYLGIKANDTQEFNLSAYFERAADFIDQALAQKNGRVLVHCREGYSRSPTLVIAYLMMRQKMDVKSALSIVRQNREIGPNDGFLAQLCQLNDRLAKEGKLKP
Sphingosine 1-phosphate receptor 5, sequence (Q9H228 whole entry): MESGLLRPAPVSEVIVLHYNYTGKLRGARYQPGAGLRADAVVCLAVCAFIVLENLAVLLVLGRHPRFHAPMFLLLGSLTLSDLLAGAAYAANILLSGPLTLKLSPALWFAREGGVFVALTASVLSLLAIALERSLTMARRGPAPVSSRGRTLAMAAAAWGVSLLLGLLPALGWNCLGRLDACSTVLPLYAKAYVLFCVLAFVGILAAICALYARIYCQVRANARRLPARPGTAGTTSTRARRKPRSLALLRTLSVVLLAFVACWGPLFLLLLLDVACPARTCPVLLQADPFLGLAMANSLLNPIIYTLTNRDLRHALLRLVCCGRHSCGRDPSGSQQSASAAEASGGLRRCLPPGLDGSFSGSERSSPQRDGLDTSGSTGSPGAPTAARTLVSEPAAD
Sphingosine 1-phosphate receptor 1, sequence (P21453 whole entry): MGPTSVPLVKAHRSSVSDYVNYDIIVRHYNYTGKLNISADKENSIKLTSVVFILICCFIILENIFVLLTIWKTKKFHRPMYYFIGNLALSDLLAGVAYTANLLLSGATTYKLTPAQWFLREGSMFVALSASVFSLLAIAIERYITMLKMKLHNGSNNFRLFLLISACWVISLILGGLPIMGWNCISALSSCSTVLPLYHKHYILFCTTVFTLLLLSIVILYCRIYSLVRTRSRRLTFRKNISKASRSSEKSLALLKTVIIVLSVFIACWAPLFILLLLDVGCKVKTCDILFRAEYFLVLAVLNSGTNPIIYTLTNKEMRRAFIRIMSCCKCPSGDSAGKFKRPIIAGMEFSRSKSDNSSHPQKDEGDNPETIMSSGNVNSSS
Sphingosine 1-phosphate receptor 3, sequence (Q99500 whole entry): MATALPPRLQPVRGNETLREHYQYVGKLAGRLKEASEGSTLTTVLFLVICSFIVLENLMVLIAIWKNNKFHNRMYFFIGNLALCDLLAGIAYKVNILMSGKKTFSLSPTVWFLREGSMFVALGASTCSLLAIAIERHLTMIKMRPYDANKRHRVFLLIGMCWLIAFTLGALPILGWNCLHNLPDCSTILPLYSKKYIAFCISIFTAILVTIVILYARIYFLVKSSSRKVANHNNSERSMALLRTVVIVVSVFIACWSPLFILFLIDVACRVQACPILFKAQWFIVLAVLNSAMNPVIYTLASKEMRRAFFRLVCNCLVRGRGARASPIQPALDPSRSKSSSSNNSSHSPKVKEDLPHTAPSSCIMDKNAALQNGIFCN

## NS(=O)(=O)c1ccc(NC(=S)NC2CCCCC2)cc1
[1]
  IC50: 2.15 µM (active)
[2]
  IC50: 3.49 µM (active)
[3]
  IC50: > 158 µM (not active)
[4]
  IC50: 0.704 µM (active)
[5]
  IC50: > 99 µM (inactive)
[6]
  IC50: 0.025 µM (active)
[7]
  IC50: > 100 µM (inactive)
[8]
  IC50: > 100 µM (inactive)
[9]
  IC50: 1.27 µM (active)
[10]
  IC50: 0.143 µM (active)
[11]
  IC50: > 99 µM (inactive)

## Cc1cscc1-c1ccc(C(=O)Nc2c(C)cccc2C)o1
[12]
  IC50: > 25 µM (inactive)
[13]
  IC50: > 25 µM (inactive)
[14]
  IC50: > 25 µM (inactive)
[15]
  IC50: > 25 µM (inactive)

Reference: ChEMBL document CHEMBL1201862, “PubChem BioAssay data set” (2004)
